Assay results: patent US20250313563A1, “GLYCOGEN SYNTHASE KINASE 3 INHIBITORS AND USES THEREOF” (The Broad Institute, Inc., priority 2022, published 2025)
Read-outs that look alike come from different tables or passages of the source.

Assays:
[1] = target: GSK3α (GST-full length GSK3α) (Homo sapiens (Human), UniProt P49840); experiment: GSK3α TR-FRET kinase assay; assay type: biochemical; conditions: 1 nM GSK3α, 4 μM ATP, 30 minute preincubation, Table 16, read-out: GSK3-A TR-FRET BIOCHEMICAL (TR-FRET)
In short: (§1)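 Compound preincubated 30 min, then 1 nM GST-full-length GSK3α or GSK3b run 100 min at ambient temperature with 200 nM biotinylated, S645-prephosphorylated glycogen synthase 631-650 peptide in Tris pH 7.5, MgCl2, DTT, BSA, 1% DMSO. ATP 4 μM (α) or 2 μM (β), or 1 mM. EDTA-quenched; Tb-anti-pSer641/streptavidin-d2 TR-FRET 665/615 ratio gave IC50.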

[2] = target: GSK3b (GST-full length GSK3b) (Homo sapiens (Human), UniProt P49841); experiment: GSK3b TR-FRET kinase assay; assay type: biochemical; conditions: 1 nM GSK3b, 2 μM ATP, 30 minute preincubation, Table 16, read-out: GSK3-B TR-FRET BIOCHEMICAL (TR-FRET)
In short: as §1

GSK3α (GST-full length GSK3α), sequence (P49840 whole entry): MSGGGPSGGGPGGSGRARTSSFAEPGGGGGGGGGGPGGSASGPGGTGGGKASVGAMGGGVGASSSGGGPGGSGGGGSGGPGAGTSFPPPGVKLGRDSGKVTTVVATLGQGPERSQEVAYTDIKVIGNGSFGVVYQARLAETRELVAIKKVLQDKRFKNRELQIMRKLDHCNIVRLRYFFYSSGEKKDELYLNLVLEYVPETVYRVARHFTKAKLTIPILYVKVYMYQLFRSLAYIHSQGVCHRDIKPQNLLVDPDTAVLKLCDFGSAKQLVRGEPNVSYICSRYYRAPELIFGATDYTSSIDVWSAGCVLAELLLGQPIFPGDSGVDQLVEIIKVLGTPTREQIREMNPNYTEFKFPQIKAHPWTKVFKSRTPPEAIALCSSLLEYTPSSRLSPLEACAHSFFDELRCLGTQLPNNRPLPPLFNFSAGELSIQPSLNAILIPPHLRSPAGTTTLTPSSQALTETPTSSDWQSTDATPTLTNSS
GSK3b (GST-full length GSK3b), sequence (P49841 whole entry): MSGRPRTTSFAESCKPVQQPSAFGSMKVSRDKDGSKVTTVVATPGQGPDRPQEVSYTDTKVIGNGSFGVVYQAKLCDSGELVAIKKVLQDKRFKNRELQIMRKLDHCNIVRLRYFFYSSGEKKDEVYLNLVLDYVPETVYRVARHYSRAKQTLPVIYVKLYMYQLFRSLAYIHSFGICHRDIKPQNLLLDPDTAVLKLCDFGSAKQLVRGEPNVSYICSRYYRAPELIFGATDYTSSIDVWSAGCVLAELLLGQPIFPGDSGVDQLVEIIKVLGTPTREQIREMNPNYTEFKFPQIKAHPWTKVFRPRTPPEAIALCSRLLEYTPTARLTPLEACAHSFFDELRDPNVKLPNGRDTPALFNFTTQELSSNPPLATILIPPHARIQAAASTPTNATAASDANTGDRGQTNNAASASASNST

Compound	IC50 ([1]; IC50) [nM]	IC50 ([2]; IC50) [nM]	IC50 [1] [nM]	IC50 [2] [nM]
CCC1(c2cccc(-c3ccnn3C)c2)C2=C(CC(C)(C)CC2=O)Nc2n[nH]c(C)c21 (centres unmarked) [Compound 883992]	≤ 100	≤ 100		
CCC1(c2cccc(-c3cnn(C)c3C)c2)C2=C(CC(C)(C)CC2=O)Nc2n[nH]c(C)c21 (centres unmarked) [Compound 883993]	≤ 100	≤ 100		
CCC1(c2cccc(-c3cn[nH]c3)c2)C2=C(CC(C)(C)CC2=O)Nc2n[nH]c(C)c21 (centres unmarked) [Compound 883994]	≤ 100	≤ 100		
CCC1(c2cccc(-c3c(C)nn(C)c3C)c2)C2=C(CC(C)(C)CC2=O)Nc2n[nH]c(C)c21 (centres unmarked) [Compound 883995]	≤ 100	≤ 100		
CCC1(c2cccc(-c3cnn(CCOC)c3)c2)C2=C(CC(C)(C)CC2=O)Nc2n[nH]c(C)c21 (centres unmarked) [Compound 883996]	≤ 100	100 to 1000		
CCC1(c2cccc(-c3ccn(C)n3)c2)C2=C(CC(C)(C)CC2=O)Nc2n[nH]c(C)c21 (centres unmarked) [Compound 883999]	≤ 100	≤ 100		
CCC1(c2cccc(-c3cncn3C)c2)C2=C(CC(C)(C)CC2=O)Nc2n[nH]c(C)c21 (centres unmarked) [Compound 884001]	≤ 100	≤ 100		
CCC1(c2cccc(-c3cnn4c3CCCC4)c2)C2=C(CC(C)(C)CC2=O)Nc2n[nH]c(C)c21 (centres unmarked) [Compound 884002]	≤ 100	≤ 100		
CCC1(c2cccc(-c3cn(C)nc3C)c2)C2=C(CC(C)(C)CC2=O)Nc2n[nH]c(C)c21 (centres unmarked) [Compound 884003]	≤ 100	≤ 100		
CC1(C)CC(=O)C2=C(C1)Nc1n[nH]cc1[C@]21C[C@@H](n2cccn2)C1 [Compound 884004]			≤ 100	≤ 100
CC1(C)CC(=O)C2=C(C1)Nc1n[nH]cc1[C@]21C[C@H](n2cccn2)C1 [Compound 884005]			≤ 100	≤ 100
CC(C)[C@@H]1C[C@@]2(CCO1)C1=C(CC(C)(C)CC1=O)Nc1n[nH]cc12 [Compound 884013]	1000 to 5000	> 5000		
CC(C)[C@H]1C[C@]2(CCO1)C1=C(CC(C)(C)CC1=O)Nc1n[nH]cc12 [Compound 884014]	1000 to 5000	> 5000		
CC[C@]1(C)C2=C(CC(C)(C)CC2=O)Nc2n[nH]cc21 [Compound 884019]	100 to 1000	1000 to 5000		
CC[C@]1(C)C2=C(CC(C)(C)CC2=O)Nc2n[nH]cc21 [Compound 884020]	> 5000	> 5000		
CC1(C)CC(=O)C2=C(C1)Nc1n[nH]cc1[C@]21CCO[C@@H](C(F)(F)F)C1 [Compound 884021]			100 to 1000	100 to 1000
CC1(C)CC(=O)C2=C(C1)Nc1n[nH]cc1[C@@]21CCO[C@H](C(F)(F)F)C1 [Compound 884022]			100 to 1000	100 to 1000
CC1(C)CC(=O)C2=C(C1)Nc1n[nH]cc1[C@]21CCO[C@H](C(F)(F)F)C1 [Compound 884023]	1000 to 5000	> 5000		
CC1(C)CC(=O)C2=C(C1)Nc1n[nH]cc1[C@@]21CCO[C@@H](C(F)(F)F)C1 [Compound 884024]	1000 to 5000	> 5000		
CC1(C)CCC2(CC1)C1=C(CC(C)(C)CC1=O)Nc1n[nH]cc12 [Compound 884107]			≤ 100	100 to 1000
CCN(C(C)=O)c1cccc(C2(CC)C3=C(CC(C)(C)CC3=O)Nc3n[nH]cc32)c1 (centres unmarked) [Compound 884109]	≤ 100	≤ 100		
CCC1(c2cccc(N(Cc3ccccc3)C(C)=O)c2)C2=C(CC(C)(C)CC2=O)Nc2n[nH]cc21 (centres unmarked) [Compound 884110]	≤ 100	≤ 100		
O=C1CCCC2=C1C1(CCOCC1)c1c[nH]nc1N2 [Compound 884111]	1000 to 5000	> 5000		
CC1CC(=O)C2=C(C1)Nc1n[nH]cc1C21CCOCC1 (centres unmarked) [Compound 884112]	100 to 1000	100 to 1000		
C[C@@H]1C[C@H](C)C[C@@]2(C1)C1=C(CC(C)(C)CC1=O)Nc1n[nH]cc12 [Compound 884113]			100 to 1000	1000 to 5000
C[C@@H]1C[C@H](C)C[C@]2(C1)C1=C(CC(C)(C)CC1=O)Nc1n[nH]cc12 [Compound 884114]			100 to 1000	100 to 1000
CCC1(c2cccc(N3CCCCC3)c2)C2=C(CC(C)(C)CC2=O)Nc2n[nH]c(C)c21 (centres unmarked) [Compound 884115]	100 to 1000	100 to 1000		
CO[C@H]1CC[C@]2(CC1)C1=C(CC(C)(C)CC1=O)Nc1n[nH]cc12 [Compound 884119]			≤ 100	100 to 1000
